# The PolyMetriX glass transition set
row,glass transition temperature [°C],SMILES
1,242.00,*C1CCC(CC2CCC(N3C(=O)c4ccc(-c5ccc6c(c5)C(=O)N(*)C6=O)cc4C3=O)CC2)CC1 (repeat unit)
2,231.00,*CN1C(=O)c2ccc(C(c3ccc4c(c3)C(=O)N(Cc3nc5cc(-c6ccc7oc(*)nc7c6)ccc5o3)C4=O)(C(F)(F)F)C(F)(F)F)cc2C1=O (repeat unit)
3,208.00,*CN1C(=O)c2ccc(C(c3ccc4c(c3)C(=O)N(Cc3nnc(-c5ccc(-c6nnc(*)o6)c(Oc6ccccc6)c5)o3)C4=O)(C(F)(F)F)C(F)(F)F)cc2C1=O (repeat unit)
4,237.50,*c1ccc(OCCCOc2ccc(N3C(=O)c4ccc(-c5cccc6c5C(=O)N(*)C6=O)cc4C3=O)cc2)cc1 (repeat unit)
5,223.00,*c1ccc(Oc2ccc(C(c3ccc(Oc4ccc(N5C(=O)c6ccc(-c7ccc8c(c7)C(=O)N(*)C8=O)cc6C5=O)cc4C(F)(F)F)cc3)(C(F)(F)F)C(F)(F)F)cc2)c(C(F)(F)F)c1 (repeat unit)
6,346.50,*c1ccc2c(c1)C(=O)N(C1CCC(N3C(=O)c4ccc(C(*)(C(F)(F)F)C(F)(F)F)cc4C3=O)CC1)C2=O (repeat unit)
7,285.00,*c1ccc2c(c1)C(=O)N(c1ccc(NC(=O)C(F)(F)C(F)(F)C(F)(F)C(F)(F)C(=O)Nc3ccc(N4C(=O)c5ccc(C(*)(C(F)(F)F)C(F)(F)F)cc5C4=O)cc3)cc1)C2=O (repeat unit)
8,272.00,*c1ccc2c(c1)C(=O)N(c1ccc(NC(=S)/N=C/c3ccc(Cl)c(N4C(=O)c5ccc(C(*)(C(F)(F)F)C(F)(F)F)cc5C4=O)c3)cc1)C2=O (repeat unit)
9,140.00,*c1ccc2c(c1)C(=O)N(c1ccc(OCCOCCOCCOCCOc3ccc(N4C(=O)c5ccc(C(*)(C(F)(F)F)C(F)(F)F)cc5C4=O)cc3)cc1)C2=O (repeat unit)
10,254.00,*c1ccc2c(c1)C(=O)N(c1ccc(OCCOc3ccc(N4C(=O)c5ccc(C(*)(C(F)(F)F)C(F)(F)F)cc5C4=O)cc3)cc1)C2=O (repeat unit)
11,226.90,*c1ccc2c(c1)C(=O)N(c1ccc(Oc3ccc(C(=O)c4cccc(C(=O)c5ccc(Oc6ccc(N7C(=O)c8ccc(C(*)(C(F)(F)F)C(F)(F)F)cc8C7=O)cc6)cc5)n4)cc3)cc1)C2=O (repeat unit)
12,292.00,*c1ccc2c(c1)C(=O)N(c1ccc(Oc3ccc(N4C(=O)c5ccc(C(*)(C(F)(F)F)C(F)(F)F)cc5C4=O)cc3)c(O)c1)C2=O (repeat unit)
13,279.00,*c1ccc2c(c1)C(=O)N(c1ccc(Oc3ccc(Oc4ccc(N5C(=O)c6ccc(C(*)(C(F)(F)F)C(F)(F)F)cc6C5=O)cc4)cc3)cc1)C2=O (repeat unit)
14,180.00,*c1ccc2c(c1)C(=O)N(c1ccc(Oc3cccc(-c4cc(-c5ccccc5)cc(-c5cccc(Oc6ccc(N7C(=O)c8ccc(C(*)(C(F)(F)F)C(F)(F)F)cc8C7=O)cc6)c5)n4)c3)cc1)C2=O (repeat unit)
15,300.00,*c1ccc2c(c1)C(=O)N(c1cccc(Oc3ccc(N4C(=O)c5ccc(-c6c(-c7ccccc7)c(-c7ccccc7)c(-c7ccc(Sc8ccc(-c9c(-c%10ccccc%10)c(-c%10ccccc%10)c(*)c(-c%10ccccc%10)c9-c9ccccc9)cc8)cc7)c(-c7ccccc7)c6-c6ccccc6)cc5C4=O)cc3)c1)C2=O (repeat unit)

# Continued, compound first:
row,SMILES,glass transition temperature [°C]
1,*CC1CC2CC1C1CCC(CN3C(=O)c4ccc(-c5ccc6c(c5)C(=O)N(*)C6=O)cc4C3=O)C21 (repeat unit),230.00
2,*CC1CCCC(CN2C(=O)c3ccc(C(c4ccc5c(c4)C(=O)N(*)C5=O)(C(F)(F)F)C(F)(F)F)cc3C2=O)C1 (repeat unit),222.00
3,*CCCCCCCCCCCCN1C(=O)c2ccc(C(c3ccc4c(c3)C(=O)N(CCCCCCCCCCCCN3C(=O)c5ccc6c7ccc8c9c(ccc(c%10ccc(c5c6%10)C3=O)c97)C(=O)N(*)C8=O)C4=O)(C(F)(F)F)C(F)(F)F)cc2C1=O (repeat unit),170.00
4,*CCN(CCN1C(=O)c2ccc(C(c3ccc4c(c3)C(=O)N(*)C4=O)(C(F)(F)F)C(F)(F)F)cc2C1=O)c1ccc(/N=N/c2ccc(C3OCCO3)cc2)cc1 (repeat unit),178.00
5,*CN1C(=O)c2ccc(C(c3ccc4c(c3)C(=O)N(Cc3nnc(-c5ccc(-c6nnc(*)o6)cc5)o3)C4=O)(C(F)(F)F)C(F)(F)F)cc2C1=O (repeat unit),214.00
6,*CN1C(=O)c2ccc(C(c3ccc4c(c3)C(=O)N(Cc3nnc(-c5ccc(Oc6ccc(-c7nnc(*)o7)cc6)cc5)o3)C4=O)(C(F)(F)F)C(F)(F)F)cc2C1=O (repeat unit),210.00
7,*Oc1ccc(C(=O)c2cccc(C(=O)c3ccc(Oc4ccc(Cc5ccc(*)cc5)cc4)cc3)c2)cc1 (repeat unit),145.00
8,*c1cc(Br)c(Oc2c(Br)cc(N3C(=O)c4ccc(S(=O)(=O)c5ccc6c(c5)C(=O)N(*)C6=O)cc4C3=O)cc2Br)c(Br)c1 (repeat unit),328.00
9,*c1ccc(C2(c3ccc(N4C(=O)c5ccc(S(=O)(=O)c6ccc7c(c6)C(=O)N(*)C7=O)cc5C4=O)cc3)c3ccccc3-c3ccccc32)cc1 (repeat unit),392.00
10,*c1ccc(N2C(=O)c3ccc(-c4ccc5c(c4)C(=O)N(*)C5=O)cc3C2=O)cc1 (repeat unit),341.00
11,*c1ccc(N2C(=O)c3ccc(P(=O)(c4ccccc4)c4ccc5c(c4)C(=O)N(*)C5=O)cc3C2=O)cc1 (repeat unit),366.00
12,*c1ccc(OCCCCCCCCCCOc2ccc(N3C(=O)c4ccc(-c5ccc6c(c5)C(=O)N(*)C6=O)cc4C3=O)cc2)cc1 (repeat unit),153.00
13,*c1ccc(Oc2cc3ccccc3cc2Oc2ccc(N3C(=O)c4ccc(S(=O)(=O)c5ccc6c(c5)C(=O)N(*)C6=O)cc4C3=O)cc2)cc1 (repeat unit),275.00
14,*c1ccc(Oc2ccc(C(=O)c3cccc(C(=O)c4ccc(Oc5ccc(N6C(=O)c7ccc(Oc8ccc9c(c8)C(=O)N(*)C9=O)cc7C6=O)cc5)cc4)c3)cc2)cc1 (repeat unit),208.00
15,*c1ccc(Oc2ccc(N3C(=O)c4ccc([Si](C)(C)c5ccc6c(c5)C(=O)N(*)C6=O)cc4C3=O)cc2)cc1 (repeat unit),274.00
16,*c1ccc(Oc2ccc(Oc3ccc(N4C(=O)c5ccc(-c6cccc7c6C(=O)N(*)C7=O)cc5C4=O)cc3)cc2)cc1 (repeat unit),285.00

row,SMILES,glass transition temperature [°C]
1,*c1ccc(Oc2ccc(S(=O)(=O)c3ccc(Oc4ccc(N5C(=O)c6ccc(S(=O)(=O)c7ccc8c(c7)C(=O)N(*)C8=O)cc6C5=O)cc4)cc3)cc2)cc1 (repeat unit),274.00
2,*c1ccc2c(c1)C(=O)N(c1cc(Br)c(Oc3c(Br)cc(N4C(=O)c5ccc(C(*)(C(F)(F)F)C(F)(F)F)cc5C4=O)cc3Br)c(Br)c1)C2=O (repeat unit),303.00
3,*c1ccc2c(c1)C(=O)N(c1cc(C(c3ccc(OC(=O)C45CC6CC(CC(C6)C4)C5)c(N4C(=O)c5ccc(C(*)(C(F)(F)F)C(F)(F)F)cc5C4=O)c3)(C(F)(F)F)C(F)(F)F)ccc1OC(=O)C13CC4CC(CC(C4)C1)C3)C2=O (repeat unit),305.00
4,*c1ccc2c(c1)C(=O)N(c1ccc(-c3ccc(N4C(=O)c5ccc(C(*)(c6ccccc6)C(F)(F)F)cc5C4=O)cc3C(F)(F)F)c(C(F)(F)F)c1)C2=O (repeat unit),280.00
5,*c1ccc2c(c1)C(=O)N(c1ccc(Cc3ccc(N4C(=O)c5ccc(C(F)(F)C(F)(F)C(*)(F)F)cc5C4=O)cc3)cc1)C2=O (repeat unit),290.00
6,*c1ccc2c(c1)C(=O)N(c1ccc(N3C(=O)c4ccc(-c5c(-c6ccccc6)c(-c6ccccc6)c(-c6ccc(Sc7ccc(-c8c(-c9ccccc9)c(-c9ccccc9)c(*)c(-c9ccccc9)c8-c8ccccc8)cc7)cc6)c(-c6ccccc6)c5-c5ccccc5)cc4C3=O)cc1)C2=O (repeat unit),344.00
7,*c1ccc2c(c1)C(=O)N(c1ccc(OCCCCCCCCCCOc3ccc(N4C(=O)c5ccc(C(*)(C(F)(F)F)C(F)(F)F)cc5C4=O)cc3)cc1)C2=O (repeat unit),143.00
8,*c1ccc2c(c1)C(=O)N(c1ccc(OCCCCCCOc3ccc(N4C(=O)c5ccc(C(*)(C(F)(F)F)C(F)(F)F)cc5C4=O)cc3)cc1)C2=O (repeat unit),167.00
9,*c1ccc2c(c1)C(=O)N(c1ccc(OCCCCOc3ccc(N4C(=O)c5ccc(C(*)(C(F)(F)F)C(F)(F)F)cc5C4=O)cc3)cc1)C2=O (repeat unit),169.00
10,*c1ccc2c(c1)C(=O)N(c1ccc(OCCOCCOCCOc3ccc(N4C(=O)c5ccc(C(*)(C(F)(F)F)C(F)(F)F)cc5C4=O)cc3)cc1)C2=O (repeat unit),166.00
11,*c1ccc2c(c1)C(=O)N(c1ccc(Oc3ccc(N4C(=O)c5ccc(-c6c(-c7ccccc7)c(-c7ccccc7)c(-c7ccc(Oc8ccc(-c9c(-c%10ccccc%10)c(-c%10ccccc%10)c(*)c(-c%10ccccc%10)c9-c9ccccc9)cc8)cc7)c(-c7ccccc7)c6-c6ccccc6)cc5C4=O)cc3)cc1)C2=O (repeat unit),329.00
12,*c1ccc2c(c1)C(=O)N(c1ccc(Oc3ccc(N4C(=O)c5ccc(-c6c(-c7ccccc7)c(-c7ccccc7)c(-c7ccc(Sc8ccc(-c9c(-c%10ccccc%10)c(-c%10ccccc%10)c(*)c(-c%10ccccc%10)c9-c9ccccc9)cc8)cc7)c(-c7ccccc7)c6-c6ccccc6)cc5C4=O)cc3)cc1)C2=O (repeat unit),322.00
13,*c1ccc2c(c1)C(=O)N(c1ccc(Oc3ccc(N4C(=O)c5ccc(C(*)O[Si](C)(C)C)cc5C4=O)cc3)cc1)C2=O (repeat unit),210.00
14,*c1ccc2c(c1)C(=O)N(c1ccc(Oc3ccc(N4C(=O)c5ccc(C(F)(F)C(F)(F)C(F)(F)C(*)(F)F)cc5C4=O)cc3)cc1)C2=O (repeat unit),212.00
15,*c1ccc2c(c1)C(=O)N(c1ccc(Oc3ccc(N4C(=O)c5ccc(C(F)(F)C(F)(F)C(F)(F)C(F)(F)C(F)(F)C(*)(F)F)cc5C4=O)cc3)cc1)C2=O (repeat unit),185.00
